In US20150346214A1, “DETECTION OF MEMBRANE PROTEINS” (priority 2012, published 2015):

Columns and labels:
[1] = target: T1, mechanosensitive channel of large conductance (MscL) (Mycobacterium tuberculosis, UniProt P9WJN5); experiment: Phospholipid binding to MscL resolved by native MS / IM-MS in C8E4; details: optimised P:L:D ratio of Table 2
T1 sequence (P9WJN5 1-151): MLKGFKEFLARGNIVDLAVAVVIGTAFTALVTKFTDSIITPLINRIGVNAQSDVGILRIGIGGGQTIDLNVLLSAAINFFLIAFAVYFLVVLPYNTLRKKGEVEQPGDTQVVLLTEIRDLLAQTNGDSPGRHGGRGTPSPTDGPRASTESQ

ammonia channel (AmtB) = ammonia channel (AmtB) (Escherichia coli, UniProt P69681); experiment: Phospholipid binding to AmtB resolved by native MS / IM-MS in C8E4; set-up: species or system E. coli; details: AmtB in C8E4; optimised P:L:D ratio of Table 2
Aquaporin Z (AQPZ) [2] = target: T2, Aquaporin Z (AQPZ) (Escherichia coli, UniProt P60844); experiment: Phospholipid binding to AQPZ resolved by native MS / IM-MS in C8E4; set-up: species or system E. coli; details: for # Bound (number of resolvable phospholipids bound): AQPZ in C8E4, optimised P:L:D ratio of Table 2
Aquaporin Z (AQPZ) [3] = target: T2, Aquaporin Z (AQPZ); experiment: Mass spectra and ion mobility MS of AQPZ complex in three detergents (Example 2); set-up: species or system E. coli; details: for experimental collisional cross section (CCS) / folded state: AQPZ, IM-MS, CIU fingerprints, C8E4 at ELAB <1500; for species in mass spectrum (expected oligomer versus dissociation products): tetrameric AQPZ, sample cone 10 volts, collision voltage 200 volts
Experimental: (§1) AmtB-GFP and AQPZ-GFP were extracted from purified membranes in 2% OG in Buffer B and incubated overnight at 4° C. Extracted membrane proteins were clarified by centrifugation at 20,000 g for 25 minutes at 4° C. The clarified supernatant was filtered before loading onto a 5 mL HisTrap-HP column (GE Healthcare, Piscataway, NJ) equilibrated in Buffer E (200 mM sodium chloride, 10% glycerol, 20 mM Imidazole, 0.025% DDM, and 50 mM TRIS, pH 7.4 at room temperature). After the clarified supernatant was loaded, the column was initially washed with 40-50 mL of Buffer E containing 1% OG instead of DDM followed by several column volumes of Buffer E until a steady baseline was reached. Protein was eluted with a linear gradient to 100% in two column volumes of Buffer F (100 mM sodium chloride, 10% glycerol, 500 mM Imidazole, 0.025% DDM, and 50 mM TRIS, pH 7.4 at room temperature). Peak fractions were pooled, supplemented with 5mM BME and His-tagged TEV protease, arid dialyzed against Buffer G (150 mM sodium chloride, 10% glycerol, 20 mM Imidazole, 0.02% DDM, and 50 mM TRIS, pH 7.4 at room temperature) overnight at 4° C. After overnight incubation at 4° C., samples were filtered and passed back over a 5 mL. HisTrap-HP column equilibrated in Buffer E. Flow through containing the untagged membrane protein was collected and concentrated using a 100 kDa MWCO concentrator. Concentrated protein was flash frozen in liquid nitrogen and stored at -80° C.
(§2) Frozen samples were thawed on ice prior to detergent exchange over gel filtration. Samples were injected on a Superdex 200 10/300 (GE Healthcare) equilibrated in Buffer H (130 mM sodium chloride, 10% glycerol, and 50 mM TRIS, pH 7.4 at room temperature) supplemented with 0.5% of C8E4, 0.4% of NG, or 0.02% of DDM. Peak fractions were concentrated using a 100 kDa MWCO concentrator. Concentrated protein was either used directly or flash-frozen in liquid nitrogen and stored at −80° C. Purified membrane proteins were buffer exchanged into MS Buffer (2× CMC detergent of interest and 200 mM Ammonium Acetate, pH 8.0 with Ammonium Hydroxide) using a centrifugal buffer exchange device (Micro Bio-Spin 6, Bio-Rad).
(§3) Buffer exchanged protein was analysed on a quadrupole ion mobility time-of-flight mass spectrometer (Synapt HDMS, Waters Corp.) modified with an 18 cm drift cell with radial RF confinement (RF amplitude 200 V) and a linear voltage gradient along the axis of ion transmission such that collision cross section (CCS) values could be determined directly.
(§4) Mass spectra were acquired with instrument set to 10 volts for sample cone and 200 volts for collision voltage.
(§5) The preservation of native structure is most likely due to the charge reducing behaviour of C8E4, as well as other polyoxyalkylene glycol detergents, which results in a two to five fold reduction in activation energy. In addition, under ELAB values slightly greater than 1500, the CCS value increases consistent with partial unfolding. More importantly, gas-phase unfolding can be observed for these membrane complexes at ELAB values of 1750 to 2250. These gas-phase unfolding transitions can be altered in the presence of a drug molecule that stabilises protein structure, thereby enabling the detection of drug molecules that stabilise protein structure.

ammonium channel (AmtB) = ammonium channel (AmtB) (Escherichia coli, UniProt P69681); experiment: Mass spectra and ion mobility MS of AmtB complex in three detergents (Example 2); set-up: species or system E. coli; details: for experimental collisional cross section (CCS) / folded state: AmtB, IM-MS, CIU fingerprints, C8E4 at ELAB <1500; for species in mass spectrum (expected oligomer versus dissociation products): trimeric AmtB, sample cone 10 volts, collision voltage 200 volts
Experimental: as §1, §2, §3, §4, §5

[4] = target: E. coli ammonium channel C-terminally fused to green fluorescent protein (AmtB-GFP) (Escherichia coli, UniProt P69681, S65T); details: AmtB-GFP trimer in MS buffer with 2x CMC of the detergent; charge state envelopes modelled with a Gaussian
Experimental: The activation energy required to achieve resolved peaks of E. coli ammonium channel C-terminally fused to green fluorescent protein (AmtB-GFP) was assessed for a variety of non-ionic detergents.
AmtB-GFP was extracted from purified membranes (described above) with 1-2% (w/v) of the detergent of interest in Buffer B and incubated for one to three hours at room temperature or overnight at 4° C. Insoluble material was pelleted by centrifugation at 20,000 g for 25 minutes at 4° C. The clarified supernatant was loaded onto small Ni-NTA agarose (Qiagen) drip columns (Bio-spin Chromatography columns, Bio-Rad) and washed with several column volumes of Buffer C (200 mM sodium chloride, 20 mM Imidazole, 5 mM BME, 2× CMC detergent of interest, and 50 mM TRIS, pH 8.0 at room temperature). AmtB-GFP was eluted with two column volumes of Buffer D (100 mM sodium chloride, 250 mM Imidazole, 5 mM BME, 2× CMC detergent of interest, and 50 mM TRIS, pH 8.0 at room temperature). Eluted protein was concentrated using a 100 kDa MWCO concentrator and buffer exchanged into MS Buffer (2× CMC detergent of interest and 200 mM Ammonium Acetate, pH 8.0 with Ammonium Hydroxide) using a centrifugal buffer exchange device (Micro Bio-Spin 6, Bio-Rad).
Buffer exchanged protein was analysed on a Q-TOF 2 mass spectrometer (Micromass, Manchester, UK) with a Z-spray source including modifications for protein complexes after introduction of complexes from gold-coated nanoflow capillaries.

T2 sequence (P60844 whole entry): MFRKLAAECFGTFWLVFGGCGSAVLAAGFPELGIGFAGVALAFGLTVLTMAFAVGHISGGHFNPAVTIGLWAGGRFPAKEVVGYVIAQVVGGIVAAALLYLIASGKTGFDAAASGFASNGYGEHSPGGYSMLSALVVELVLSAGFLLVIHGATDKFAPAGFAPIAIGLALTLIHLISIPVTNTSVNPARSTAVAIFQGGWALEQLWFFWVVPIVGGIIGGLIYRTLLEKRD

Compound	# Bound (number of resolvable phospholipids bound) [1]	Zavg (mean charge state) [4]	also measured
1-palrnitoyl-2-oleoyl-sn-glycero-3-phosphocholine (16:0-18:1) [PC]	3	–	# Bound (number of resolvable phospholipids bound) (ammonia channel (AmtB)): 3; # Bound (number of resolvable phospholipids bound) (Aquaporin Z (AQPZ) [2]): 3; bound phospholipid molecules (Aquaporin Z (AQPZ) [2]; AQPZ tetramer, mass spectra and ion mobility (FIG. 9)): up to four; bound phospholipid molecules resolved (Aquaporin Z (AQPZ) [2]; AQPZ, collision voltage 130 V (FIG. 6a)): one to six
CCCCCCCC/C=C\CCCCCCCCCCCC(=O)OC[C@H](COP(=O)([O-])OCC[N+](C)(C)C)OC(=O)CCCCCCCCCCC/C=C\CCCCCCCC (stereo in doubt) [DEPC, 1 ,2-dierucoyl-sn-glycero-3-phosphocholine (22:1 Cis)]	2	–	–
CCCCCCCC/C=C\CCCCCCCCCC(=O)OC[C@H](COP(=O)([O-])OCC[N+](C)(C)C)OC(=O)CCCCCCCCC/C=C\CCCCCCCC (stereo in doubt) [DIPC, 1,2-dieicosenoyl-sn-glycero-3-phosphocholine (20:1 Cis)]	2	–	–
CCCC/C=C\CCCCCCCC(=O)OC[C@H](COP(=O)([O-])OCC[N+](C)(C)C)OC(=O)CCCCCCC/C=C\CCCC (stereo in doubt) [DMPC, 1,2-dimyristoleoyl-sn-glycero-3-phosphocholine (14:1 Cis)]	2	–	–
CCCCCCCC/C=C\CCCCCCCCCCCCCC(=O)OC[C@H](COP(=O)([O-])OCC[N+](C)(C)C)OC(=O)CCCCCCCCCCCCC/C=C\CCCCCCCC (stereo in doubt) [DNPC, 1,2-dinervonoyl-sn-glycero-3-phosphocholine (24:1 Cis)]	2	–	–
CCCCCCCC/C=C\CCCCCCCC(=O)OC[C@H](COP(=O)([O-])OCC[N+](C)(C)C)OC(=O)CCCCCCC/C=C\CCCCCCCC (stereo in doubt) [DOPC, 1,2-dioleoyl-sn-glycero-3-phosphocholine (18:1 Cis)]	2	–	–
CCCCCC/C=C\CCCCCCCC(=O)OC[C@H](COP(=O)([O-])OCC[N+](C)(C)C)OC(=O)CCCCCCC/C=C\CCCCCC (stereo in doubt) [DPPC, 1,2-dipalmitoleoyl-sn-glycero-3-phosphocholine (16:1 Cis)]	2	–	–
CCCCCCCCOCCOCCOCCOCCO [C8E4, tetraethylene glycol monooctyl ether]	–	21.3	experimental collisional cross section (CCS) / folded state (Aquaporin Z (AQPZ) [3]): consistent with calculated CCS values from their respective crystal structure; species in mass spectrum (expected oligomer versus dissociation products) (Aquaporin Z (AQPZ) [3]): no observable dissociation products; experimental collisional cross section (CCS) / folded state (ammonium channel (AmtB)): consistent with calculated CCS values from their respective crystal structure; species in mass spectrum (expected oligomer versus dissociation products) (ammonium channel (AmtB)): no observable dissociation products
OC[C@H]1O[C@H](O[C@H]2[C@H](O)[C@@H](O)[C@H](OCCCCCC3CCCCC3)O[C@@H]2CO)[C@H](O)[C@@H](O)[C@@H]1O [Cy5, Cymal-5]	–	31.3	–
OC[C@H]1O[C@H](O[C@H]2[C@H](O)[C@@H](O)[C@H](OCCCCCCC3CCCCC3)O[C@@H]2CO)[C@H](O)[C@@H](O)[C@@H]1O [Cy6, Cymal-6]	–	30.5	–
CCCCCCCCCCCCO[C@@H]1O[C@H](CO)[C@@H](O[C@H]2O[C@H](CO)[C@@H](O)[C@H](O)[C@H]2O)[C@H](O)[C@H]1O [DDM, n-Dodecyl-β-D-maltoside]	–	30.4	experimental collisional cross section (CCS) / folded state (Aquaporin Z (AQPZ) [3]): all unfolded CCS values; species in mass spectrum (expected oligomer versus dissociation products) (Aquaporin Z (AQPZ) [3]): mainly dissociation products; experimental collisional cross section (CCS) / folded state (ammonium channel (AmtB)): all unfolded CCS values; species in mass spectrum (expected oligomer versus dissociation products) (ammonium channel (AmtB)): mainly dissociation products
CCCCCCCCCCCCS[C@@H]1O[C@H](CO)[C@@H](O[C@H]2O[C@H](CO)[C@@H](O)[C@H](O)[C@H]2O)[C@H](O)[C@H]1O [DDTM, n-Dodecyl-β-D-thiomaltopyranoside]	–	30.0	–
CCCCCCCCCCO[C@@H]1O[C@H](CO)[C@@H](O[C@H]2O[C@H](CO)[C@@H](O)[C@H](O)[C@H]2O)[C@H](O)[C@H]1O [DM, n-Decyl-β-D-maltoside]	–	31.4	–
CCCCCCCCCO[C@@H]1O[C@H](CO)[C@@H](O)[C@H](O)[C@H]1O [NG, n-Nonyl-β-D-glucopyranoside]	–	30.4	experimental collisional cross section (CCS) / folded state (Aquaporin Z (AQPZ) [3]): the complex is unfolded; species in mass spectrum (expected oligomer versus dissociation products) (Aquaporin Z (AQPZ) [3]): mainly dissociation products; experimental collisional cross section (CCS) / folded state (ammonium channel (AmtB)): no CCS could be observed indicating native structure; species in mass spectrum (expected oligomer versus dissociation products) (ammonium channel (AmtB)): mainly dissociation products
CCCCCCCCO[C@@H]1O[C@H](CO)[C@@H](O)[C@H](O)[C@H]1O [OG, n-Octyl-β-D-glucopyranoside]	–	31.2	–
CCCCCCCCS[C@@H]1O[C@H](CO)[C@@H](O)[C@H](O)[C@H]1O [OTG, n-Octyl-β-D-thioglucopyranoside]	–	31.9	–
CCCCCCCC/C=C\CCCCCCCC(=O)OC[C@H](COP(=O)(O)O[C@H]1C(O)C(O)C(O)[C@@H](OP(=O)(O)O)C1O)OC(=O)CCCCCCC/C=C\CCCCCCCC (some centres unmarked) [PI]	4	–	–
CCCCCCCCCCCOC1OC(CO)C(OC2OC(CO)C(O)C(O)C2O)C(O)C1O [UDM, n-Undecyl-β-D-maltoside]	–	30.3	–
L-α-phosphatidylethanolamine (E. coli) [PE]	1	–	# Bound (number of resolvable phospholipids bound) (ammonia channel (AmtB)): 2; # Bound (number of resolvable phospholipids bound) (Aquaporin Z (AQPZ) [2]): 1
Octyl Glucose Neopentyl Glycol [OGNG]	–	27.9	–
polyethylene glycol tert-octylphenyl ether [TX100]	–	21.6	–
polyoxyethylene (8) dodecyl ether [C12E8]	–	25.8	–
polyoxyethylene (20) cetyl ether [C16E20]	–	25.0	–
